Results reported in paper PMC11695783 (Frontiers in Pharmacology, 2024).
Values joined by “and” are separate entries in the source; they are usually repeats but may differ in a detail not shown here. Equal values may be shown once.

What was measured:
TNF-α = TNF-α in BALF of M. pneumoniae-infected mice (ELISA); type: in vivo, BALB/c mice; conditions: for TNF-α in BALF (AV): group AV; for TNF-α in BALF: individual mice
Protocol: Adult BALB/c mice (20–22 g) were divided into a control group, a positive group, and compound 16C groups at low (20 mg/kg), medium (40 mg/kg), and high-dose (80 mg/kg) levels and oral and intramuscular tiamulin treatment groups (40 mg/kg). We formulated the above dose range based on the dose at which tiamulin was approved for injection (10–20 mg/kg) and the dose previously reported (45 mg/kg) ([EMA, 1999]; [Xiao et al., 2016]). In summary, we selected similar doses for compound 16C in vivo study. 40 mg/kg was used as an intermediate value, one-half of it as a low dose, and two times of it as a high dose. To prepare the challenge solution, logarithmic phase culture suspensions were centrifuged at 1700 g for 10 min, and the pellets were suspended in sterile PBS to obtain 1 × 10^9 CFU/mL. Before the challenge, mice were anesthetized with tribromoethanol (250 mg/kg, IP). Mice in the control groups were intratracheally inoculated with sterile PBS, whereas mice in the other groups were intratracheally challenged with 50 μL (1 × 10^9 CFU/mL) M. pneumoniae suspension once a day for 3 days. Compound 16C and tiamulin (tiamulin-IM group) dissolved using the method mentioned in pharmacokinetic studies, and the tiamulin fumarate soluble powder was dissolved in ddH2O for oral administration. After the final challenge, antibiotics were administered at low, medium, and high-dose levels (see above) at 10 a.m. and 10 p.m. daily for 4 consecutive days. Normal saline containing 5% DMSO and 5% Tween-80 was administered as control and positive groups by thigh intramuscular injection. To compare the efficacy of compound 16C and tiamulin under the same route of administration, we used the original tiamulin for intramuscular administration in the same formulation. On the other hand, tiamulin fumarate soluble powder, approved for oral administration to treat animal mycoplasma diseases in China, was administered to mice by gavage. Based on a clinical study of lefamulin in community-acquired bacterial pneumonia (CABP), subjects were administered twice a day and the 96 ± 24 h of starting treatment was an essential point for early clinical response (ECR) ([Paukner et al., 2022]). We therefore stopped treatment at 96 h and sampled at 192 h to explore whether the disease worsened after cessation of treatment. Bronchoalveolar lavage fluid (BALF) and lungs were collected at 0, 96, 192 h (Samples of 0 h were collected before starting treatment, and mice were fed ad libitum without drug treatment during 96–192 h) after the first dose, BALF for cytokine and cytological analysis and lung for histopathological evaluation.
Bronchoalveolar lavage was performed according to a standardized method ([Van Hoecke et al., 2017]). BALF was obtained following infusion of 0.5 mL PBS via tracheal cannulation into the lung twice (total 1 mL), and 200 µL was used for mycoplasma counts. The remaining BALF was centrifuged at 300 g for 10 min to separate the debris. The supernatants were stored at −80°C, and the debris was resuspended in the same volume of PBS containing red blood cell lysis buffer. A hemocytometer was used to count total cell numbers in BALF, and cell smears (Diff-Quik staining) were prepared to calculate the percentages of neutrophils, macrophages, and lymphocytes. IFN-γ, TNF-α, and CXCL1 levels in BALF samples were assessed using commercial ELISA kits using guidelines recommended by the manufacturer (Elabscience, Wuhan, China). Parallel data for each experimental group at each time point were obtained from six different mice.

[1] = system: Mycoplasma pneumoniae strain M129 (ATCC 29342); assay: Time-kill curves; type: cell-based; set-up: M. pneumoniae count in time-kill curve: unit not given here
Procedure, shortened: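 Strain grown at 37 °C, 5% CO2 in modified SP-4 broth (pH 7.4, 20% FBS). Cultures incubated 72 h, sampled every 12 h, 10-fold serially diluted and plated on SP-4 agar; colonies counted after 7 d. Three repeats.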

[2] = compound 16C 20 mg/kg IM, 192 h
[3] = compound 16C 40 mg/kg IM, 192 h
[4] = compound 16C 80 mg/kg IM, 192 h

Question: With C=CC1(C)CC(OC(=O)CSc2ccc(NC(=O)Cc3ccc([N+](=O)[O-])cc3)cc2)C2(C)C(C)CCC3(CCC(=O)C32)C(C)C1O (centres unmarked) [compound 16C, 22–((4-((4-nitrophenyl)acetamido)phenyl)thio)deoxypleuromutilin] as the compound, how does the “TNF-α in BALF (AV)” value (TNF-α; compound 16C 20 mg/kg IM, 96 h) read?
Answer: 60.6586 pg/mL

Question: What about the “TNF-α in BALF” value (TNF-α; compound 16C 20 mg/kg IM, 96 h) of the same compound?
Answer: 156.929 pg/mL and 49.4117 pg/mL and 56.9942 pg/mL and 23.2695 pg/mL and 42.5167 pg/mL and 34.8302 pg/mL

Question: What about the “TNF-α in BALF (AV)” value (TNF-α; [2]) of the same compound?
Answer: 1.835 pg/mL

Question: What about the “TNF-α in BALF” value (TNF-α; [2]) of the same compound?
Answer: 1.8363 pg/mL and 1.566 pg/mL and 2.372 pg/mL and 2.105 pg/mL and 1.293 pg/mL

Question: What about the “TNF-α in BALF (AV)” value (TNF-α; compound 16C 40 mg/kg IM, 96 h) of the same compound?
Answer: 10.1817 pg/mL

Question: What about the “TNF-α in BALF” value (TNF-α; compound 16C 40 mg/kg IM, 96 h) of the same compound?
Answer: 13.0051 pg/mL and 8.3889 pg/mL and 8.57 pg/mL and 9.454 pg/mL and 9.28 pg/mL and 12.3919 pg/mL

Question: What about the “TNF-α in BALF (AV)” value (TNF-α; [3]) of the same compound?
Answer: 8.528 pg/mL

Question: And the “TNF-α in BALF” value (TNF-α; [3])?
Answer: 8.021 pg/mL and 8.206 pg/mL and 7.835 pg/mL and 9.798 pg/mL and 9.105 pg/mL

Question: And the “TNF-α in BALF (AV)” value (TNF-α; compound 16C 80 mg/kg IM, 96 h)?
Answer: 10.9013 pg/mL

Question: And the “TNF-α in BALF” value (TNF-α; compound 16C 80 mg/kg IM, 96 h)?
Answer: 5.596 pg/mL and 10.365 pg/mL and 13.376 pg/mL and 12.1685 pg/mL and 14.3215 pg/mL and 9.581 pg/mL

Question: What about the “TNF-α in BALF (AV)” value (TNF-α; [4]) of the same compound?
Answer: 10.3825 pg/mL

Question: What about the “TNF-α in BALF” value (TNF-α; [4]) of the same compound?
Answer: 8.923 pg/mL and 7.924 pg/mL and 10.8189 pg/mL and 12.996 pg/mL and 10.1697 pg/mL and 11.4637 pg/mL

Question: What about the “M. pneumoniae count in time-kill curve” value ([1]; 1×MIC, time 0) of the same compound?
Answer: 7.809

Question: And the “M. pneumoniae count in time-kill curve” value ([1]; 1×MIC, time 12)?
Answer: 7.011

Question: What about the “M. pneumoniae count in time-kill curve” value ([1]; 1×MIC, time 24) of the same compound?
Answer: 6.5256

Question: What about the “M. pneumoniae count in time-kill curve” value ([1]; 1×MIC, time 36) of the same compound?
Answer: 6.341

Question: And the “M. pneumoniae count in time-kill curve” value ([1]; 1×MIC, time 48)?
Answer: 6.63

Question: What about the “M. pneumoniae count in time-kill curve” value ([1]; 1×MIC, time 60) of the same compound?
Answer: 6.334

Question: And the “M. pneumoniae count in time-kill curve” value ([1]; 1×MIC, time 72)?
Answer: 5.5397

Question: What about the “reduction of bacterial counts” value ([1]; 1–4 × MIC, 72 h) of the same compound?
Answer: 2.27–2.60 log10 CFU/mL

Question: What about the “M. pneumoniae count in time-kill curve” value ([1]; 2×MIC, time 0) of the same compound?
Answer: 7.809

Question: And the “M. pneumoniae count in time-kill curve” value ([1]; 2×MIC, time 12)?
Answer: 6.901

Question: And the “M. pneumoniae count in time-kill curve” value ([1]; 2×MIC, time 24)?
Answer: 6.35

Question: And the “M. pneumoniae count in time-kill curve” value ([1]; 2×MIC, time 36)?
Answer: 6.074

Question: And the “M. pneumoniae count in time-kill curve” value ([1]; 2×MIC, time 48)?
Answer: 6.197

Question: And the “M. pneumoniae count in time-kill curve” value ([1]; 2×MIC, time 60)?
Answer: 5.9

Question: What about the “M. pneumoniae count in time-kill curve” value ([1]; 2×MIC, time 72) of the same compound?
Answer: 5.211

Question: What about the “M. pneumoniae count in time-kill curve” value ([1]; 4×MIC, time 0) of the same compound?
Answer: 7.247

Question: What about the “M. pneumoniae count in time-kill curve” value ([1]; 4×MIC, time 12) of the same compound?
Answer: 6.539

Question: What about the “M. pneumoniae count in time-kill curve” value ([1]; 4×MIC, time 24) of the same compound?
Answer: 6.026

Question: What about the “M. pneumoniae count in time-kill curve” value ([1]; 4×MIC, time 36) of the same compound?
Answer: 5.763

Question: What about the “M. pneumoniae count in time-kill curve” value ([1]; 4×MIC, time 48) of the same compound?
Answer: 5.628

Question: What about the “M. pneumoniae count in time-kill curve” value ([1]; 4×MIC, time 60) of the same compound?
Answer: 5.61

Question: What about the “M. pneumoniae count in time-kill curve” value ([1]; 4×MIC, time 72) of the same compound?
Answer: 4.889

Question: What about the “M. pneumoniae count in time-kill curve” value ([1]; 8×MIC, time 0) of the same compound?
Answer: 7.429

Question: And the “M. pneumoniae count in time-kill curve” value ([1]; 8×MIC, time 12)?
Answer: 7.7

Question: What about the “M. pneumoniae count in time-kill curve” value ([1]; 8×MIC, time 24) of the same compound?
Answer: 5.719

Question: And the “M. pneumoniae count in time-kill curve” value ([1]; 8×MIC, time 36)?
Answer: 4.474

Question: And the “M. pneumoniae count in time-kill curve” value ([1]; 8×MIC, time 48)?
Answer: 3.799

Question: What about the “M. pneumoniae count in time-kill curve” value ([1]; 8×MIC, time 60) of the same compound?
Answer: 3

Question: And the “M. pneumoniae count in time-kill curve” value ([1]; 8×MIC, time 72)?
Answer: 3.001

Question: What about the “M. pneumoniae count in time-kill curve” value ([1]; 16×MIC, time 0) of the same compound?
Answer: 7.247

Question: And the “M. pneumoniae count in time-kill curve” value ([1]; 16×MIC, time 12)?
Answer: 7.508

Question: What about the “M. pneumoniae count in time-kill curve” value ([1]; 16×MIC, time 24) of the same compound?
Answer: 4.094

Question: And the “M. pneumoniae count in time-kill curve” value ([1]; 16×MIC, time 36)?
Answer: 3.774

Question: What about the “M. pneumoniae count in time-kill curve” value ([1]; 16×MIC, time 48) of the same compound?
Answer: 3.36

Question: What about the “M. pneumoniae count in time-kill curve” value ([1]; 16×MIC, time 60) of the same compound?
Answer: 2.9656

Question: And the “M. pneumoniae count in time-kill curve” value ([1]; 16×MIC, time 72)?
Answer: 2.848

Question: What about the “M. pneumoniae count in time-kill curve” value ([1]; 32×MIC, time 0) of the same compound?
Answer: 7.065

Question: And the “M. pneumoniae count in time-kill curve” value ([1]; 32×MIC, time 12)?
Answer: 6.342

Question: And the “M. pneumoniae count in time-kill curve” value ([1]; 32×MIC, time 24)?
Answer: 6.583

Question: What about the “M. pneumoniae count in time-kill curve” value ([1]; 32×MIC, time 36) of the same compound?
Answer: 4.407

Question: And the “M. pneumoniae count in time-kill curve” value ([1]; 32×MIC, time 48)?
Answer: 3.894

Question: What about the “M. pneumoniae count in time-kill curve” value ([1]; 32×MIC, time 60) of the same compound?
Answer: 3.568

Question: What about the “M. pneumoniae count in time-kill curve” value ([1]; 32×MIC, time 72) of the same compound?
Answer: 2.774

Question: And the “number of organisms (decreased to the LOD)” value ([1]; 64 × MIC, 72 h exposure)?
Answer: 2 log10 CFU/mL

Question: What about the “M. pneumoniae count in time-kill curve” value ([1]; 64×MIC, time 0) of the same compound?
Answer: 7.065

Question: What about the “M. pneumoniae count in time-kill curve” value ([1]; 64×MIC, time 12) of the same compound?
Answer: 5.938

Question: What about the “M. pneumoniae count in time-kill curve” value ([1]; 64×MIC, time 24) of the same compound?
Answer: 5.724

Question: What about the “M. pneumoniae count in time-kill curve” value ([1]; 64×MIC, time 36) of the same compound?
Answer: 3.5819

Question: What about the “M. pneumoniae count in time-kill curve” value ([1]; 64×MIC, time 48) of the same compound?
Answer: 3.199

Question: And the “M. pneumoniae count in time-kill curve” value ([1]; 64×MIC, time 60)?
Answer: 2.961

Question: What about the “M. pneumoniae count in time-kill curve” value ([1]; 64×MIC, time 72) of the same compound?
Answer: 2

Question: And the “concentration at which bactericidal effect was achieved” value ([1]; static time-kill, 72 h)?
Answer: ≥ 8 × MIC

Question: And the “reduction of bacterial counts” value ([1]; ≥ 8×MIC, 72 h)?
Answer: > 3 log10 CFU/mL
